According to patent US20230096028A1, “BICYCLIC HETEROCYCLYL COMPOUNDS AND USES THEREOF” (Revolution Medicines, Inc., priority 2019, published 2023):
Where two headings read alike, the source gives them in different places.

Tests used:
[1] = target: T1, SOS1 catalytic domain (residues 564-1049) (Homo sapiens, UniProt Q07889); assay: Mode of Action Assay: inhibition of SOS1 nucleotide exchange activity (SOS1 TR-FRET IC50 Assay)
T1 sequence (Q07889 564-1049): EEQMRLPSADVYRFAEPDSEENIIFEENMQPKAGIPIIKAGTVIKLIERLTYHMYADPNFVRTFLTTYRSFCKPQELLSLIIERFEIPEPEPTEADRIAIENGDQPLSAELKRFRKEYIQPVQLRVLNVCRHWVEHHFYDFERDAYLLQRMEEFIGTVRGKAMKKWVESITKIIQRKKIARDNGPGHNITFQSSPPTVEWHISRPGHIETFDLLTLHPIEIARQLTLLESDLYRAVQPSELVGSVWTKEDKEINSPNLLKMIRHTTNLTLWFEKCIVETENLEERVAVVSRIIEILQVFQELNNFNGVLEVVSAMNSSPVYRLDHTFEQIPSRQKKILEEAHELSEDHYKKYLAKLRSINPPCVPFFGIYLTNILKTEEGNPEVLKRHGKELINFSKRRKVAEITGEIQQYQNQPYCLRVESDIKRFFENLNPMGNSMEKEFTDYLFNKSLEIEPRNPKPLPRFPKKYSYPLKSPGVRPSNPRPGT

[2] = system: PC-9 cells (EGFR Ex19Del); assay: Potency Assay: pERK (SOS1 pERK IC50 Assay, AlphaLISA SureFire Ultra p-ERK1/2); type: cell-based; conditions: Homo sapiens, read-out: SOS1 pERK IC50
Summary of the method: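 Cellular pERK1/2 by AlphaLISA SureFire Ultra after 1 h compound exposure (37° C., highest concentration 10 μM, 3-fold steps, duplicates) of EGFR Ex19Del PC-9 cells seeded the day before. A 4-parameter fit of signal versus log concentration gives IC50.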

[3] = target: T1, SOS1 catalytic domain (residues 564-1049); assay: Potency Assay: binding affinity to SOS1 using Surface Plasmon Resonance (SPR); design: SOS1 catalytic domain (residues 564-1049) immobilized on a sensor chip; conditions: immobilized SOS1 catalytic domain (residues 564-1049), read-out: SOS1 SPR Equilibrium Kd
Summary of the method: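 Kd was obtained by plotting binding response, taken just before association ended, versus compound concentration on a Biacore 8K. Compounds flowed at 50 μL/min over streptavidin-captured avi-SOS1 catalytic domain (~6000 RU), followed by buffer dissociation; HEPES 0.01 M/NaCl 0.15 M/0.05% P20 buffer, double-referenced.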

[4] = PC-9 cells (EGFR Ex19Del), 1 hour incubation, AlphaLISA p-ERK1/2

| Compound | IC50 [1] | IC50 [2, 4] | Kd [3] | IC50 ([2]; PC-9, 1 h) |
| --- | --- | --- | --- | --- |
| COC1(C(=O)N2Cc3nc(Cl)nc(N[C@H](C)c4cccc(C(F)(F)F)c4)c3C2)CNC1 [Example 316] | < 1000 nM | < 1000 nM | < 400 nM | – |
| C[C@@H](Nc1nc(Cl)nc2c1CN(C(=O)C13CCN(CC1)C3)C2)c1cccc(C(F)F)c1F [Example 312] | < 1000 nM | < 1000 nM | < 400 nM | – |
| C[C@@H](Nc1nc(Cl)nc2c1CN(C(=O)[C@@H]1CNCCO1)C2)c1cccc(C(F)F)c1F [Example 303] | < 1000 nM | < 1000 nM | < 400 nM | – |
| C[C@@H](Nc1nc(Cl)nc2c1CN(C(=O)c1ccc(OC(F)F)cn1)C2)c1cc(N)cc(C(F)(F)F)c1 [Example 61] | > 1000 nM | < 1000 nM | < 400 nM | – |
| Nc1cc(CNc2nc(Cl)nc3c2CN(C(=O)N2CCOCC2)C3)cc(C(F)(F)F)c1 [Example 135, N-{[3-amino-5-(trifluoromethyl)phenyl]methyl}-2-chloro-6-(morpholine-4-carbonyl)-5H,6H,7H-pyrrolo[3,4-d]pyrimidin-4-amine] | > 1000 nM | > 1000 nM | > 400 nM | – |
| C[C@@H](Nc1nc(Cl)nc2c1CN(C(=O)c1ncccc1C(F)(F)F)C2)c1cc(N)cc(C(F)(F)F)c1 [Example 86] | < 1000 nM | < 1000 nM | < 400 nM | – |
| COC1(C(=O)N2Cc3nc(Cl)nc(N[C@H](C)c4cccc(C(F)F)c4F)c3C2)CCNCC1 [Example 310] | < 1000 nM | < 1000 nM | < 400 nM | – |
| C[C@@H](Nc1nc(Cl)nc2c1CN(C(=O)N1C[C@H]3C[C@@H]1CN3C)C2)c1cccc(C(F)F)c1F [Example 416] | < 1000 nM | < 1000 nM | < 400 nM | – |
| C[C@@H](Nc1nc(Cl)nc2c1CN(S(=O)(=O)N1CC3CCC(C1)O3)CC2)c1cc(N)cc(C(F)(F)F)c1 [Example 180] | < 1000 nM | < 1000 nM | < 400 nM | – |
| COC1(C(=O)N2Cc3nc(Cl)nc(NC(C)c4cccc(C(F)(F)CO)c4F)c3C2)CCOCC1 (stereo not drawn) [Example 471, 2-[3-(1-{[2-chloro-6-(4-methoxyoxane-4-carbonyl)-5H,6H,7H-pyrrolo[3,4-d]pyrimidin-4-yl]amino}ethyl)-2-fluorophenyl]-2,2-difluoroethan-1-ol] | < 1000 nM | < 1000 nM | < 400 nM | – |
| C[C@@H](Nc1nc(Cl)nc2c1CN(C(=O)c1ccnnc1)CC2)c1cc(N)cc(C(F)(F)F)c1 [Example 228] | < 1000 nM | > 1000 nM | < 400 nM | – |
| COC1(C(=O)N2Cc3nc(Cl)nc(N[C@H](C)c4cccc(C(F)F)c4F)c3C2)CCN(CCF)CC1 [Example 343] | < 1000 nM | < 1000 nM | < 400 nM | – |
| C[C@@H](Nc1nc(Cl)nc2c1CN(S(=O)(=O)N1CCN(C)CC1)CC2)c1cc(N)cc(C(F)(F)F)c1 [Example 184] | < 1000 nM | < 1000 nM | < 400 nM | – |
| COc1cccc(C(=O)N2Cc3nc(Cl)nc(N[C@H](C)c4cc(N)cc(C(F)(F)F)c4)c3C2)c1OC [Example 107] | < 1000 nM | < 1000 nM | < 400 nM | – |
| C[C@@H](Nc1nc(Cl)nc2c1CN(C(=O)N1CCNC(=O)C1)C2)c1cccc(C(F)F)c1F [Example 403] | < 1000 nM | < 1000 nM | < 400 nM | – |
| COc1nccc(C(=O)N2CCc3nc(Cl)nc(N[C@H](C)c4cc(N)cc(C(F)(F)F)c4)c3C2)n1 [Example 234] | > 1000 nM | > 1000 nM | > 400 nM | – |
| C[C@@H](Nc1nc(Cl)nc2c1CN(C(=O)c1ccccn1)CC2)c1cc(N)cc(C(F)(F)F)c1 [Example 247] | > 1000 nM | > 1000 nM | > 400 nM | – |

| Compound | IC50 [1] | IC50 [2, 4] | Kd [3] | IC50 ([2]; PC-9, 1 h) |
| --- | --- | --- | --- | --- |
| CNc1nc2c(c(N[C@H](C)c3cc(N)cc(C(F)(F)F)c3)n1)CN(C(=O)N1CCOCC1)C2 [Example 125, N4-[(1R)-1-[3-amino-5-(trifluoro-methyl)phenyl]ethyl]-N2-methyl-6-(morpholine-4-carbonyl)-5H,6H,7H-pyrrolo[3,4-d]pyrimidine-2,4-diamine] | < 1000 nM | < 1000 nM | < 400 nM | – |
| C[C@@H](Nc1nc(Cl)nc2c1CN(C(=O)C1(C)CN(CCF)C1)C2)c1cccc(C(F)F)c1F [Example 342] | < 1000 nM | < 1000 nM | < 400 nM | – |
| C[C@@H](Nc1nc(Cl)nc2c1CN(C(=O)N1CCNc3ncccc31)C2)c1cc(N)cc(C(F)(F)F)c1 [Example 138] | < 1000 nM | < 1000 nM | < 400 nM | – |
| C[C@@H](Nc1nc(Cl)nc2c1CN(S(=O)(=O)C1CCNCC1)CC2)c1cc(N)cc(C(F)(F)F)c1 [Example 450] | < 1000 nM | < 1000 nM | < 400 nM | – |
| Cc1c(C(C)Nc2nc(Cl)nc3c2CN(C(=O)N2CCOCC2)C3)cccc1C(F)(F)CO (stereo not drawn) [Example 507, 2-[3-(1-{[2-chloro-6-(morpholine-4-carbonyl)-5H,6H,7H-pyrrolo[3,4-d]pyrimidin-4-yl]amino}ethyl)-2-methylphenyl]-2,2-difluoroethan-1-ol] | < 1000 nM | > 1000 nM | < 400 nM | – |
| COc1cc(C(=O)N2Cc3nc(Cl)nc(N[C@H](C)c4cc(N)cc(C(F)(F)F)c4)c3C2)ncn1 [Example 62] | > 1000 nM | < 1000 nM | < 400 nM | – |
| C[C@@H](Nc1nc(Cl)nc2c1CN(C(=O)c1cccnn1)C2)c1cc(N)cc(C(F)(F)F)c1 [Example 71] | < 1000 nM | < 1000 nM | < 400 nM | – |
| CNC1(C(=O)N2Cc3nc(Cl)nc(N[C@H](C)c4cccc(C(F)F)c4F)c3C2)CCOCC1 [Example 333] | < 1000 nM | < 1000 nM | < 400 nM | – |
| C[C@@H](Nc1nc(Cl)nc2c1CN(C(=O)C1(C)CCN(C)CC1)C2)c1cc(N)cc(C(F)(F)F)c1 [Example 262] | < 1000 nM | < 1000 nM | < 400 nM | – |
| CCC(Nc1nc(Cl)nc2c1CN(C(=O)N1CCOCC1)C2)c1cc(N)cc(C(F)(F)F)c1 (stereo not drawn) [Example 470, N-{1-[3-amino-5-(trifluoromethyl)phenyl]propyl}-2-chloro-6-(morpholine-4-carbonyl)-5H,6H,7H-pyrrolo[3,4-d]pyrimidin-4-amine] | < 1000 nM | – | > 400 nM | < 1000 nM |
| C[C@@H](Nc1nc(Cl)nc2c1CN(C(=O)C13CN(C1)S(=O)(=O)C3)C2)c1cccc(C(F)F)c1F [Example 297] | < 1000 nM | < 1000 nM | < 400 nM | – |
| Cc1c(C(F)F)cccc1[C@@H](C)Nc1nc(Cl)nc2c1CN(C(=O)N1CCOCC1)C2 [Example 492] | < 1000 nM | < 1000 nM | < 400 nM | – |
| COc1ncc(C(=O)N2Cc3nc(Cl)nc(N[C@H](C)c4cc(N)cc(C(F)(F)F)c4)c3C2)cn1 [Example 60] | > 1000 nM | < 1000 nM | < 400 nM | – |
| C[C@@H](Nc1nc(Cl)nc2c1CN(C(=O)C1(F)CN(C)C1)C2)c1cccc(C(F)F)c1F [Example 408] | < 1000 nM | < 1000 nM | < 400 nM | – |
| C[C@@H](Nc1nc(Cl)nc2c1CN(C(=O)N1CCOC(c3ccncc3)C1)C2)c1cc(N)cc(C(F)(F)F)c1 (stereo partly drawn) [Example 145] | < 1000 nM | < 1000 nM | < 400 nM | – |
| C[C@@H](Nc1nc(Cl)nc2c1CN(C(=O)N1C[C@H]3CN(C)C[C@H]3C1)C2)c1cccc(C(F)F)c1F [Example 414] | < 1000 nM | < 1000 nM | < 400 nM | – |
